Test results: the supplement of paper PMC10307832

Experiments:
Experiment in all cases: relative viability (nuclei count vs DMSO), 5 days (fraction); higher = more cells survive
[1] = tested on: NCI-H2023
Summary of the method: (§1)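 Each reported value is a median over duplicate plates. It expresses relative viability: treated-well nuclei count divided by vehicle-well nuclei count. Lung cancer cell lines in 1536-well plates were dosed by pin tool a day after seeding, alone with one drug or with a fixed anchor-drug dose plus five library-drug doses (not always all listed) in √10 steps, and nuclei were counted after 5 days.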

[2] = tested on: NCI-H2009
Summary of the method: as §1

[3] = tested on: HARA
Summary of the method: as §1

[4] = tested on: COR-L23
Summary of the method: as §1

[5] = tested on: SK-LU-1
Summary of the method: as §1

[6] = tested on: NCI-H1793
Summary of the method: as §1

[7] = tested on: A-427
Summary of the method: as §1

[8] = tested on: NCI-H1734
Summary of the method: as §1

[9] = tested on: HCC-15
Summary of the method: as §1

[10] = tested on: HCC-366
Summary of the method: as §1

[11] = tested on: HCC-78
Summary of the method: as §1

[12] = tested on: NCI-H2228
Summary of the method: as §1

[13] = tested on: NCI-H1993
Summary of the method: as §1

[14] = tested on: LC-2-ad
Summary of the method: as §1

[15] = tested on: NCI-H1944
Summary of the method: as §1

[16] = tested on: NCI-H838
Summary of the method: as §1

[17] = tested on: EMC-BAC-2
Summary of the method: as §1

[18] = tested on: NCI-H23
Summary of the method: as §1

[19] = tested on: NCI-H2126
Summary of the method: as §1

[20] = tested on: ABC-1
Summary of the method: as §1

[21] = tested on: UMC-11
Summary of the method: as §1

[22] = tested on: NCI-H2405
Summary of the method: as §1

Question: How did the relative viability ([1]; first compound 0.01 µM) turn out when `NC(=O)Nc1cc(-c2cccc(F)c2)sc1C(=O)N[C@H]1CCCNC1` [AZD7762] + CS(=O)(=O)CCNCc1ccc(-c2ccc3ncnc(Nc4ccc(OCc5cccc(F)c5)c(Cl)c4)c3c2)o1 [Lapatinib] (partner 2 µM) was run?
Answer: 0.601

Question: What about the relative viability ([1]; first compound 0.03162 µM) of the same compound?
Answer: 0.758

Question: And the relative viability ([1]; first compound 0.1 µM)?
Answer: 0.366

Question: And the relative viability ([1]; first compound 0.3162 µM)?
Answer: 0.198

Question: What about the relative viability ([1]; first compound 1 µM) of the same compound?
Answer: 0.102

Question: And the relative viability ([2]; first compound 0.01 µM)?
Answer: 1.25

Question: What about the relative viability ([2]; first compound 0.03162 µM) of the same compound?
Answer: 1.04

Question: And the relative viability ([2]; first compound 0.1 µM)?
Answer: 1

Question: What about the relative viability ([2]; first compound 0.3162 µM) of the same compound?
Answer: 0.896

Question: And the relative viability ([2]; first compound 1 µM)?
Answer: 0.518

Question: And the relative viability ([3]; first compound 0.01 µM)?
Answer: 0.851

Question: What about the relative viability ([3]; first compound 0.03162 µM) of the same compound?
Answer: 0.763

Question: And the relative viability ([3]; first compound 0.1 µM)?
Answer: 0.759

Question: And the relative viability ([3]; first compound 0.3162 µM)?
Answer: 0.781

Question: What about the relative viability ([3]; first compound 1 µM) of the same compound?
Answer: 0.256

Question: What about the relative viability ([4]; first compound 0.01 µM) of the same compound?
Answer: 1.16

Question: And the relative viability ([4]; first compound 0.03162 µM)?
Answer: 1.06

Question: What about the relative viability ([4]; first compound 0.1 µM) of the same compound?
Answer: 0.953

Question: What about the relative viability ([4]; first compound 0.3162 µM) of the same compound?
Answer: 0.729

Question: What about the relative viability ([4]; first compound 1 µM) of the same compound?
Answer: 0.131

Question: What about the relative viability ([5]; first compound 0.01 µM) of the same compound?
Answer: 0.943

Question: What about the relative viability ([5]; first compound 0.03162 µM) of the same compound?
Answer: 0.714

Question: What about the relative viability ([5]; first compound 0.1 µM) of the same compound?
Answer: 0.456

Question: And the relative viability ([5]; first compound 0.3162 µM)?
Answer: 0.276

Question: And the relative viability ([5]; first compound 1 µM)?
Answer: 0.217

Question: What about the relative viability ([6]; first compound 0.01 µM) of the same compound?
Answer: 1.08

Question: What about the relative viability ([6]; first compound 0.03162 µM) of the same compound?
Answer: 0.721

Question: What about the relative viability ([6]; first compound 0.1 µM) of the same compound?
Answer: 0.805

Question: What about the relative viability ([6]; first compound 0.3162 µM) of the same compound?
Answer: 0.874

Question: And the relative viability ([6]; first compound 1 µM)?
Answer: 0.261

Question: What about the relative viability ([7]; first compound 0.01 µM) of the same compound?
Answer: 1.09

Question: And the relative viability ([7]; first compound 0.03162 µM)?
Answer: 1.05

Question: What about the relative viability ([7]; first compound 0.1 µM) of the same compound?
Answer: 1.07

Question: And the relative viability ([7]; first compound 0.3162 µM)?
Answer: 0.938

Question: What about the relative viability ([7]; first compound 1 µM) of the same compound?
Answer: 0.716

Question: And the relative viability ([8]; first compound 0.01 µM)?
Answer: 0.974

Question: And the relative viability ([8]; first compound 0.03162 µM)?
Answer: 1.16

Question: What about the relative viability ([8]; first compound 0.1 µM) of the same compound?
Answer: 1.13

Question: What about the relative viability ([8]; first compound 0.3162 µM) of the same compound?
Answer: 0.946

Question: And the relative viability ([8]; first compound 1 µM)?
Answer: 0.67

Question: And the relative viability ([9]; first compound 0.01 µM)?
Answer: 0.842

Question: And the relative viability ([9]; first compound 0.03162 µM)?
Answer: 0.823

Question: What about the relative viability ([9]; first compound 0.1 µM) of the same compound?
Answer: 0.807

Question: And the relative viability ([9]; first compound 0.3162 µM)?
Answer: 0.782

Question: And the relative viability ([9]; first compound 1 µM)?
Answer: 0.907

Question: And the relative viability ([10]; first compound 0.01 µM)?
Answer: 0.991

Question: And the relative viability ([10]; first compound 0.03162 µM)?
Answer: 1.12

Question: What about the relative viability ([10]; first compound 0.1 µM) of the same compound?
Answer: 0.879

Question: What about the relative viability ([10]; first compound 0.3162 µM) of the same compound?
Answer: 0.375

Question: What about the relative viability ([10]; first compound 1 µM) of the same compound?
Answer: 0.0771

Question: What about the relative viability ([11]; first compound 0.01 µM) of the same compound?
Answer: 0.863

Question: And the relative viability ([11]; first compound 0.03162 µM)?
Answer: 0.791

Question: What about the relative viability ([11]; first compound 0.1 µM) of the same compound?
Answer: 0.842

Question: What about the relative viability ([11]; first compound 0.3162 µM) of the same compound?
Answer: 0.653

Question: And the relative viability ([11]; first compound 1 µM)?
Answer: 0.304

Question: What about the relative viability ([12]; first compound 0.01 µM) of the same compound?
Answer: 1.28

Question: And the relative viability ([12]; first compound 0.03162 µM)?
Answer: 1.46

Question: And the relative viability ([12]; first compound 0.1 µM)?
Answer: 1.22

Question: And the relative viability ([12]; first compound 0.3162 µM)?
Answer: 0.34

Question: And the relative viability ([12]; first compound 1 µM)?
Answer: 0.231

Question: What about the relative viability ([13]; first compound 0.01 µM) of the same compound?
Answer: 0.791

Question: What about the relative viability ([13]; first compound 0.03162 µM) of the same compound?
Answer: 0.789

Question: And the relative viability ([13]; first compound 0.1 µM)?
Answer: 0.664

Question: What about the relative viability ([13]; first compound 0.3162 µM) of the same compound?
Answer: 0.89

Question: And the relative viability ([13]; first compound 1 µM)?
Answer: 0.793

Question: What about the relative viability ([14]; first compound 0.01 µM) of the same compound?
Answer: 1.05

Question: And the relative viability ([14]; first compound 0.03162 µM)?
Answer: 1.04

Question: And the relative viability ([14]; first compound 0.1 µM)?
Answer: 0.47

Question: And the relative viability ([14]; first compound 0.3162 µM)?
Answer: 0.392

Question: And the relative viability ([14]; first compound 1 µM)?
Answer: 0.258

Question: And the relative viability ([15]; first compound 0.01 µM)?
Answer: 0.977

Question: And the relative viability ([15]; first compound 0.03162 µM)?
Answer: 0.876

Question: What about the relative viability ([15]; first compound 0.1 µM) of the same compound?
Answer: 1.01

Question: What about the relative viability ([15]; first compound 0.3162 µM) of the same compound?
Answer: 0.846

Question: And the relative viability ([15]; first compound 1 µM)?
Answer: 1.01

Question: What about the relative viability ([16]; first compound 0.01 µM) of the same compound?
Answer: 0.917

Question: What about the relative viability ([16]; first compound 0.03162 µM) of the same compound?
Answer: 0.908

Question: And the relative viability ([16]; first compound 0.1 µM)?
Answer: 1.07

Question: And the relative viability ([16]; first compound 0.3162 µM)?
Answer: 0.903

Question: What about the relative viability ([16]; first compound 1 µM) of the same compound?
Answer: 0.268

Question: And the relative viability ([17]; first compound 0.01 µM)?
Answer: 0.908

Question: And the relative viability ([17]; first compound 0.03162 µM)?
Answer: 0.929

Question: What about the relative viability ([17]; first compound 0.1 µM) of the same compound?
Answer: 0.919

Question: What about the relative viability ([17]; first compound 0.3162 µM) of the same compound?
Answer: 0.91

Question: And the relative viability ([17]; first compound 1 µM)?
Answer: 0.894

Question: And the relative viability ([18]; first compound 0.01 µM)?
Answer: 1.08

Question: What about the relative viability ([18]; first compound 0.03162 µM) of the same compound?
Answer: 1.04

Question: What about the relative viability ([18]; first compound 0.1 µM) of the same compound?
Answer: 1.18

Question: And the relative viability ([18]; first compound 0.3162 µM)?
Answer: 0.508

Question: And the relative viability ([18]; first compound 1 µM)?
Answer: 0.3

Question: What about the relative viability ([19]; first compound 0.01 µM) of the same compound?
Answer: 0.774

Question: What about the relative viability ([19]; first compound 0.03162 µM) of the same compound?
Answer: 0.82

Question: And the relative viability ([19]; first compound 0.1 µM)?
Answer: 0.834

Question: What about the relative viability ([19]; first compound 0.3162 µM) of the same compound?
Answer: 0.803

Question: And the relative viability ([19]; first compound 1 µM)?
Answer: 0.821

Question: And the relative viability ([20]; first compound 0.01 µM)?
Answer: 1.46

Question: And the relative viability ([20]; first compound 0.03162 µM)?
Answer: 1.33

Question: What about the relative viability ([20]; first compound 0.1 µM) of the same compound?
Answer: 0.983

Question: What about the relative viability ([20]; first compound 0.3162 µM) of the same compound?
Answer: 1.2

Question: What about the relative viability ([20]; first compound 1 µM) of the same compound?
Answer: 0.981

Question: What about the relative viability ([21]; first compound 0.01 µM) of the same compound?
Answer: 0.936

Question: What about the relative viability ([21]; first compound 0.03162 µM) of the same compound?
Answer: 1.01

Question: What about the relative viability ([21]; first compound 0.1 µM) of the same compound?
Answer: 0.871

Question: And the relative viability ([21]; first compound 0.3162 µM)?
Answer: 0.743

Question: What about the relative viability ([21]; first compound 1 µM) of the same compound?
Answer: 0.398

Question: What about the relative viability ([22]; first compound 0.01 µM) of the same compound?
Answer: 1.11

Question: What about the relative viability ([22]; first compound 0.03162 µM) of the same compound?
Answer: 1.41

Question: What about the relative viability ([22]; first compound 0.1 µM) of the same compound?
Answer: 0.998

Question: What about the relative viability ([22]; first compound 0.3162 µM) of the same compound?
Answer: 1.01

Question: And the relative viability ([22]; first compound 1 µM)?
Answer: 0.422
